Like-named read-outs stand apart in the source and are kept apart here.
Assays:
Assay type in all cases: cell-based, human
[1] = system: HTT mRNA; experiment: Splicing RT-qPCR assay, HTT canonical (CJ) and alternative (AJ) junction mRNA; conditions: Homo sapiens, A673 or K562 cells, 24 hours compound treatment; for IC50: 24 h, read-out: HTT CJ (IC50, decrease in canonical junction mRNA); for AC50: read-out: HTT AJ (AC50, increase in alternative junction mRNA)
Method in brief: (§1)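 A673 or K562 cells were treated 24 h at 37 °C with an 11-point 3-fold compound dilution series (top 10 uM, DMSO ≤0.25%). Lysates went to one-step RT-qPCR measuring canonical (CJ) and alternative-exon (AJ) junction transcripts, normalized to GAPDH, GUSB or PPIA.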

[2] = system: SMN2 mRNA; experiment: Splicing RT-qPCR gene panel, SMN2 canonical junction (CJ) mRNA; conditions: Homo sapiens, Tables 4A/4B, read-out: SMN2 (IC50, decrease in CJ mRNA, gene panel)
Method in brief: (§2)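 Cells (A673 in DMEM/10% FBS, K562 in IMDM/10% FBS) got compound for 24 h, top dose 10 uM, 11 points, 3-fold steps, DMSO ≤0.25%. Lysates went to RT-qPCR for the canonical exon-exon junction; ΔΔCt against housekeeper and DMSO gave RQ, then percentage response.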

[3] = system: Target C mRNA; experiment: Splicing RT-qPCR gene panel, Target C canonical junction (CJ) mRNA; conditions: Homo sapiens, Tables 4A/4B, read-out: Target C (IC50, decrease in CJ mRNA, gene panel)
Method in brief: as §2

[4] = system: HTT mRNA; experiment: Splicing RT-qPCR gene panel, HTT canonical junction (CJ) mRNA; conditions: Homo sapiens, Tables 4A/4B, read-out: HTT (IC50, decrease in CJ mRNA, gene panel)
Method in brief: as §2

[5] = system: MYB mRNA; experiment: Splicing RT-qPCR assay, MYB canonical (CJ) and alternative (AJ) junction mRNA; conditions: Homo sapiens; for AC50: read-out: MYB AJ (AC50, increase in alternative junction mRNA)
Method in brief: as §1

[6] = 24 h, A673 or K562 cells, 24 hours compound treatment, RT-qPCR
[7] = 24 h, A673 or K562 cells, 24 hours compound treatment, RT-qPCR, read-out: MYB CJ (IC50, decrease in canonical junction mRNA)
[8] = Tables 4A/4B, canonical junction qPCR panel, read-out: MYB (IC50, decrease in CJ mRNA, gene panel)

## C=C(C)n1ncc2c(N3CCNCC3)ccc(C(=O)Nc3cc(F)c4nc(C)cn4c3)c21 [Compound 416, N-(8-fluoro-2-methylimidazo[1,2-a]pyridin-6-yl)-4-(piperazin-1-yl)-1-(prop-1-en-2-yl)-1H-indazole-7-carboxamide]
[1]
  IC50: > 10 µM
  AC50: > 10 µM
[2]
  IC50: 1 to 10 µM
[3]
  IC50: > 10 µM
[4]
  IC50: > 10 µM
[5]; [6]
  AC50: > 10 µM
[5]; [7]
  IC50: > 10 µM
[5]; [8]
  IC50: > 10 µM

## CNC1CCN(c2ccc(C(=O)Nc3cn4cc(C)nc4c(OC)n3)c3nn(C)cc23)C1 (centres unmarked) [Compound 417]
[1]
  IC50: 1 to 10 µM
  AC50: > 10 µM
[2]
  IC50: < 0.1 µM
[3]
  IC50: > 10 µM
[4]
  IC50: > 10 µM
[5]; [6]
  AC50: < 0.1 µM
[5]; [7]
  IC50: < 0.1 µM
[5]; [8]
  IC50: < 0.1 µM

## CNC1CCN(c2ccc(C(=O)Nc3cn4cc(C)nc4c(OC)n3)c3nn(CCOC)cc23)C1 (centres unmarked) [Compound 418, N-{8-methoxy-2-methylimidazo[1,2-a]pyrazin-6-yl}-2-(2-methoxyethyl)-4-[3-(methylamino)pyrrolidin-1-yl]indazole-7-carboxamide]
[1]
  IC50: > 10 µM
  AC50: > 10 µM
[2]
  IC50: < 0.1 µM
[3]
  IC50: > 10 µM
[4]
  IC50: > 10 µM
[5]; [6]
  AC50: 1 to 10 µM
[5]; [7]
  IC50: 0.1 to 1 µM
[5]; [8]
  IC50: 0.1 to 1 µM

## CNC1CCN(c2ccc(C(=O)Nc3cn4cc(C)nc4c(N(C)C)n3)c3nn(C)cc23)C1 (centres unmarked) [Compound 419, N-[8-(dimethylamino)-2-methylimidazo[1,2-a]pyrazin-6-yl]-2-methyl-4-[3-(methylamino)pyrrolidin-1-yl]indazole-7-carboxamide]
[1]
  IC50: > 10 µM
  AC50: > 10 µM
[2]
  IC50: > 10 µM
[3]
  IC50: > 10 µM
[4]
  IC50: > 10 µM
[5]; [6]
  AC50: > 10 µM
[5]; [7]
  IC50: > 10 µM
[5]; [8]
  IC50: > 10 µM

## CCOc1nc(NC(=O)c2ccc(N3CCC(NC)C3)c3cn(C)nc23)cn2cc(C)nc12 (centres unmarked) [Compound 420, N-{8-ethoxy-2-methylimidazo[1,2-a]pyrazin-6-yl}-2-methyl-4-[3-(methylamino)pyrrolidin-1-yl]indazole-7-carboxamide]
[1]
  IC50: > 10 µM
  AC50: > 10 µM
[2]
  IC50: < 0.1 µM
[3]
  IC50: > 10 µM
[4]
  IC50: > 10 µM
[5]; [6]
  AC50: 0.1 to 1 µM
[5]; [7]
  IC50: 0.1 to 1 µM
[5]; [8]
  IC50: 0.1 to 1 µM

## Cc1cc2nc(NC(=O)c3ccc(N4CCNCC4)c4cn(C)nc34)cc(C)n2n1 [Compound 421, N-{2,7-dimethylpyrazolo[1,5-a]pyrimidin-5-yl}-2-methyl-4-(piperazin-1-yl) indazole-7-carboxamide]
[1]
  IC50: > 10 µM
  AC50: > 10 µM
[2]
  IC50: > 10 µM
[3]
  IC50: > 10 µM
[4]
  IC50: > 10 µM
[5]; [6]
  AC50: > 10 µM
[5]; [7]
  IC50: > 10 µM
[5]; [8]
  IC50: > 10 µM

## CCn1cc2c(N3CCC(C)(NC)CC3)ccc(C(=O)Nc3cc(F)c4nc(C)cn4c3)c2n1 [Compound 423, 2-ethyl-N-{8-fluoro-2-methylimidazo[1,2-a]pyridin-6-yl}-4-[4-methyl-4-(methylamino)piperidin-1-yl]indazole-7-carboxamide]
[1]
  IC50: 0.1 to 1 µM
  AC50: 0.1 to 1 µM
[2]
  IC50: < 0.1 µM
[3]
  IC50: 1 to 10 µM
[4]
  IC50: 0.1 to 1 µM
[5]; [6]
  AC50: < 0.1 µM
[5]; [7]
  IC50: < 0.1 µM
[5]; [8]
  IC50: < 0.1 µM

## COC1CC(n2cc3c(N4CCNCC4)ccc(C(=O)Nc4cc(F)c5nc(C)cn5c4)c3n2)C1 (centres unmarked) [Compound 424]
[1]
  IC50: > 10 µM
  AC50: > 10 µM
[2]
  IC50: 1 to 10 µM
[3]
  IC50: > 10 µM
[4]
  IC50: > 10 µM
[5]; [6]
  AC50: > 10 µM
[5]; [7]
  IC50: > 10 µM
[5]; [8]
  IC50: > 10 µM

## CN[C@@H]1CCN(c2ccc(C(=O)Nc3cn4cc(C)nc4c(N(C)C)n3)c3nn(C)cc23)C1 [Compound 425]
[1]
  IC50: > 10 µM
  AC50: > 10 µM
[2]
  IC50: > 10 µM
[3]
  IC50: > 10 µM
[4]
  IC50: > 10 µM
[5]; [6]
  AC50: > 10 µM
[5]; [7]
  IC50: > 10 µM
[5]; [8]
  IC50: > 10 µM

## CN[C@H]1CCN(c2ccc(C(=O)Nc3cn4cc(C)nc4c(N(C)C)n3)c3nn(C)cc23)C1 [Compound 426]
[1]
  IC50: > 10 µM
  AC50: > 10 µM
[2]
  IC50: > 10 µM
[3]
  IC50: > 10 µM
[4]
  IC50: > 10 µM
[5]; [6]
  AC50: > 10 µM
[5]; [7]
  IC50: > 10 µM
[5]; [8]
  IC50: > 10 µM

## Cc1cn2cc(NC(=O)c3ccc(N4CCNCC4)c4nn(C)nc34)cc(F)c2n1 [Compound 427, N-{8-fluoro-2-methylimidazo[1,2-a]pyridin-6-yl}-2-methyl-7-(piperazin-1-yl)-1,2,3-benzotriazole-4-carboxamide]
[1]
  IC50: 0.1 to 1 µM
  AC50: 0.1 to 1 µM
[2]
  IC50: < 0.1 µM
[3]
  IC50: 1 to 10 µM
[4]
  IC50: 0.1 to 1 µM
[5]; [6]
  AC50: 0.1 to 1 µM
[5]; [7]
  IC50: 0.1 to 1 µM
[5]; [8]
  IC50: 0.1 to 1 µM

## COc1c(NC(=O)c2ccc(N3CCNCC3)c3oc(C)nc23)cn2cc(C)nc2c1F [Compound 428, N-{8-fluoro-7-methoxy-2-methylimidazo[1,2-a]pyridin-6-yl}-2-methyl-7-(piperazin-1-yl)-1,3-benzoxazole-4-carboxamide]
[1]
  IC50: < 0.1 µM
  AC50: < 0.1 µM
[2]
  IC50: < 0.1 µM
[3]
  IC50: 0.1 to 1 µM
[4]
  IC50: < 0.1 µM
[5]; [6]
  AC50: < 0.1 µM
[5]; [7]
  IC50: < 0.1 µM
[5]; [8]
  IC50: < 0.1 µM

## CCn1cc2c(N3CCN[C@@H](CO)C3)ccc(C(=O)Nc3cc(F)c4nc(C)cn4c3)c2n1 [Compound 429, (R)-2-ethyl-N-(8-fluoro-2-methylimidazo[1,2-a]pyridin-6-yl)-4-(3-(hydroxymethyl)piperazin-1-yl)-2H-indazole-7-carboxamide]
[1]
  IC50: 1 to 10 µM
  AC50: 1 to 10 µM
[2]
  IC50: < 0.1 µM
[3]
  IC50: > 10 µM
[4]
  IC50: 1 to 10 µM
[5]; [6]
  AC50: 0.1 to 1 µM
[5]; [7]
  IC50: 0.1 to 1 µM
[5]; [8]
  IC50: 0.1 to 1 µM

## CCn1cc2c(N3CCN[C@H](CO)C3)ccc(C(=O)Nc3cc(F)c4nc(C)cn4c3)c2n1 [Compound 430, (S)-2-ethyl-N-(8-fluoro-2-methylimidazo[1,2-a]pyridin-6-yl)-4-(3-(hydroxymethyl)piperazin-1-yl)-2H-indazole-7-carboxamide]
[1]
  IC50: 1 to 10 µM
  AC50: 1 to 10 µM
[2]
  IC50: < 0.1 µM
[3]
  IC50: > 10 µM
[4]
  IC50: 1 to 10 µM
[5]; [6]
  AC50: < 0.1 µM
[5]; [7]
  IC50: < 0.1 µM
[5]; [8]
  IC50: < 0.1 µM

## CN[C@@H]1CCN(c2ccc(C(=O)Nc3cn4cc(C)nc4c(OC)n3)c3nn(CCOC)cc23)C1 [Compound 431, (R)—N-(8-methoxy-2-methylimidazo[1,2-a]pyrazin-6-yl)-2-(2-methoxyethyl)-4-(3-(methylamino)pyrrolidin-1-yl)-2H-indazole-7-carboxamide]
[1]
  IC50: > 10 µM
  AC50: > 10 µM
[2]
  IC50: < 0.1 µM
[3]
  IC50: 1 to 10 µM
[4]
  IC50: 1 to 10 µM
[5]; [6]
  AC50: 0.1 to 1 µM
[5]; [7]
  IC50: 0.1 to 1 µM
[5]; [8]
  IC50: < 0.1 µM

## CN[C@H]1CCN(c2ccc(C(=O)Nc3cn4cc(C)nc4c(OC)n3)c3nn(CCOC)cc23)C1 [Compound 432, (S)—N-(8-methoxy-2-methylimidazo[1,2-a]pyrazin-6-yl)-2-(2-methoxyethyl)-4-(3-(methylamino)pyrrolidin-1-yl)-2H-indazole-7-carboxamide]
[1]
  IC50: > 10 µM
  AC50: > 10 µM
[2]
  IC50: < 0.1 µM
[3]
  IC50: > 10 µM
[4]
  IC50: > 10 µM
[5]; [6]
  AC50: < 0.1 µM
[5]; [7]
  IC50: < 0.1 µM
[5]; [8]
  IC50: 0.1 to 1 µM

Reference: patent US20250154169A1, “COMPOUNDS AND METHODS FOR MODULATING SPLICING” (REMIX THERAPEUTICS INC., priority 2021, published 2025)
